Tests used:
hPRMT1 [1] = molecular target: T1, hPRMT1 (Homo sapiens, UniProt Q99873); assay: Initial velocity studies; assay type: biochemical; conditions: for K(SAM) (Michaelis constant): pH 8.0, 37°C, fit to eq 2
hPRMT1 [2] = molecular target: T1, hPRMT1; assay: Dead-end analogue inhibition, AcH4-21 and SAM as substrates; assay type: biochemical; conditions: pH 8.0, 37°C

T1 sequence (Q99873 whole entry): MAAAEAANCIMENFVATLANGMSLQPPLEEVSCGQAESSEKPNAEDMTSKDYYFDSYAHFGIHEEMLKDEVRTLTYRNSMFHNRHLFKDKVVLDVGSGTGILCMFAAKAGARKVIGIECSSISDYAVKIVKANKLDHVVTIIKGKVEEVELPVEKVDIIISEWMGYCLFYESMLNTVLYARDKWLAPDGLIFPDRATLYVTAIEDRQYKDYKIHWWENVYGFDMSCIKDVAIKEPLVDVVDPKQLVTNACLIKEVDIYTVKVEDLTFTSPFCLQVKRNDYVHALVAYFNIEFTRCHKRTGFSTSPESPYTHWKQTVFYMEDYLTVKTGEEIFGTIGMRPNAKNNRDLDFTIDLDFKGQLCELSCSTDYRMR

Structure (SMILES) | K(SAM) (Michaelis constant) (hPRMT1 [1]; AcH4-21 varied, fixed SAM 1, 2.5, 7.5 µM) | Initial velocity pattern (double reciprocal plots) (hPRMT1 [1]; SAM and peptide varied at various fixed concentrations of the other substrate) | K(SAM) (Michaelis constant) (hPRMT1 [1]; SAM varied, fixed AcH4-21 2.5, 5, 25 µM) | Kii (intercept Ki) (hPRMT1 [2]; AcH4-21 varied, fixed [SAM] = 15 µM, mixed fit eq 5) [nM] | Inhibition pattern (hPRMT1 [2]; SAM varied, fixed AcH4-21 10 µM, 212 nM hPRMT1, at least duplicate)
C[S+](CC[C@H](N)C(=O)[O-])C[C@H]1O[C@@H](n2cnc3c(N)ncnc32)[C@H](O)[C@@H]1O (stereo partly drawn) [SAM, S-adenosyl-L-methionine] | 8.35 ± 2.11 | intersect in the second quadrant | 21.1 ± 4.0 | – | –
Nc1ncnc2c1ncn2[C@@H]1O[C@H](C[C@@H](N)CC[C@H](N)C(=O)O)[C@@H](O)[C@H]1O [Sinefungin] | – | – | – | 470 ± 190 | Competitive

From paper PMC2933744 (Biochemistry, 2008)
